Test [1] deals with T1, Muscarinic acetylcholine receptor M1 (Homo sapiens, UniProt P11229).
T1 sequence (P11229 whole entry): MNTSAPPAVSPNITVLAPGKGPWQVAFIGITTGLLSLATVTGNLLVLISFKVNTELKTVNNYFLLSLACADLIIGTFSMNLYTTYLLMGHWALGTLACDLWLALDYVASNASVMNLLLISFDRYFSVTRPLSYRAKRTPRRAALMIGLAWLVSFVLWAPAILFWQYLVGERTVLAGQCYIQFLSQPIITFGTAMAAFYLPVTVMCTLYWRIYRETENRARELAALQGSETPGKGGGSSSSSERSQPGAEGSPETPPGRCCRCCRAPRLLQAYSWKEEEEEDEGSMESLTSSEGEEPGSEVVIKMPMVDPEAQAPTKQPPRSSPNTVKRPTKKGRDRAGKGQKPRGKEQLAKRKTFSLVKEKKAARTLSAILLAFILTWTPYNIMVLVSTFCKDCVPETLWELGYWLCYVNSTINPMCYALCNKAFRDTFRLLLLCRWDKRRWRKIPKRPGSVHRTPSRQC
Type of test: functional.

Test [2] has as its target T2, Adenosine receptor A1 (Homo sapiens, UniProt P30542).
T2 sequence (P30542 whole entry): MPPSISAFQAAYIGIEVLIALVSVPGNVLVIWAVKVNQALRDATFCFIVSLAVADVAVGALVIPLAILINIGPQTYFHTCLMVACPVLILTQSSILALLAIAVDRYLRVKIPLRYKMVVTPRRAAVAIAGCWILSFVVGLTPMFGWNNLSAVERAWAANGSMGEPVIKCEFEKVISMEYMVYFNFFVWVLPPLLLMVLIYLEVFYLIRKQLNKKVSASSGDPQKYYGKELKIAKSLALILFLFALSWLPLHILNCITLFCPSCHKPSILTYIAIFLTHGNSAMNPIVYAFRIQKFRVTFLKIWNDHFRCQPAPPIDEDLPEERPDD

The target of test [3] is T3, Endothelin-1 receptor (Homo sapiens, UniProt P25101).
T3 sequence (P25101 whole entry): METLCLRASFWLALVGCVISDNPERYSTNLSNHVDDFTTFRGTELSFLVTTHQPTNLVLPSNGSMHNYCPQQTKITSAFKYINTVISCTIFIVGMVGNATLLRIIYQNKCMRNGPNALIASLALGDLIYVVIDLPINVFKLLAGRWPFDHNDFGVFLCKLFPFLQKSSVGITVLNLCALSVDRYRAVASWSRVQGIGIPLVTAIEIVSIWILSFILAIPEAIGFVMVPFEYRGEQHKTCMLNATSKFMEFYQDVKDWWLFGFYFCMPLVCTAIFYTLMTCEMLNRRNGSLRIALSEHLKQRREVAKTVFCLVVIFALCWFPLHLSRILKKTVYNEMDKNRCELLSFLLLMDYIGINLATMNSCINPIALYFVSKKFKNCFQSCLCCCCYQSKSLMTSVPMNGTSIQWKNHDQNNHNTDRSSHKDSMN

Test [4] addresses T4, Alpha-1A adrenergic receptor (Homo sapiens, UniProt P35348).
T4 sequence (P35348 whole entry): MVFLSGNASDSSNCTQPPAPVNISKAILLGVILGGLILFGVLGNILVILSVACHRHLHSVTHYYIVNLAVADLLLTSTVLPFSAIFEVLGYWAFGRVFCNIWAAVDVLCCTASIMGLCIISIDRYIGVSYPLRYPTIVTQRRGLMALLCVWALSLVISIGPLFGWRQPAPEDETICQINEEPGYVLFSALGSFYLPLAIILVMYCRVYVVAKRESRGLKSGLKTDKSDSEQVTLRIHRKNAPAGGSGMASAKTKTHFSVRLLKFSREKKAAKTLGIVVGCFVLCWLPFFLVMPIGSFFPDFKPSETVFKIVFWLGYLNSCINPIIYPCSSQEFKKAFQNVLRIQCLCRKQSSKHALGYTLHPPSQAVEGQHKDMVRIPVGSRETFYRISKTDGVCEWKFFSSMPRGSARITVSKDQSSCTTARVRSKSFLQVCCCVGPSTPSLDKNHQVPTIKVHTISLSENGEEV

In test [5] the target is Voltage-dependent N-type calcium channel subunit alpha-1B (Rattus norvegicus, UniProt Q02294). Type of test: functional.
Sequence of Voltage-dependent N-type calcium channel subunit alpha-1B (Q02294 whole entry): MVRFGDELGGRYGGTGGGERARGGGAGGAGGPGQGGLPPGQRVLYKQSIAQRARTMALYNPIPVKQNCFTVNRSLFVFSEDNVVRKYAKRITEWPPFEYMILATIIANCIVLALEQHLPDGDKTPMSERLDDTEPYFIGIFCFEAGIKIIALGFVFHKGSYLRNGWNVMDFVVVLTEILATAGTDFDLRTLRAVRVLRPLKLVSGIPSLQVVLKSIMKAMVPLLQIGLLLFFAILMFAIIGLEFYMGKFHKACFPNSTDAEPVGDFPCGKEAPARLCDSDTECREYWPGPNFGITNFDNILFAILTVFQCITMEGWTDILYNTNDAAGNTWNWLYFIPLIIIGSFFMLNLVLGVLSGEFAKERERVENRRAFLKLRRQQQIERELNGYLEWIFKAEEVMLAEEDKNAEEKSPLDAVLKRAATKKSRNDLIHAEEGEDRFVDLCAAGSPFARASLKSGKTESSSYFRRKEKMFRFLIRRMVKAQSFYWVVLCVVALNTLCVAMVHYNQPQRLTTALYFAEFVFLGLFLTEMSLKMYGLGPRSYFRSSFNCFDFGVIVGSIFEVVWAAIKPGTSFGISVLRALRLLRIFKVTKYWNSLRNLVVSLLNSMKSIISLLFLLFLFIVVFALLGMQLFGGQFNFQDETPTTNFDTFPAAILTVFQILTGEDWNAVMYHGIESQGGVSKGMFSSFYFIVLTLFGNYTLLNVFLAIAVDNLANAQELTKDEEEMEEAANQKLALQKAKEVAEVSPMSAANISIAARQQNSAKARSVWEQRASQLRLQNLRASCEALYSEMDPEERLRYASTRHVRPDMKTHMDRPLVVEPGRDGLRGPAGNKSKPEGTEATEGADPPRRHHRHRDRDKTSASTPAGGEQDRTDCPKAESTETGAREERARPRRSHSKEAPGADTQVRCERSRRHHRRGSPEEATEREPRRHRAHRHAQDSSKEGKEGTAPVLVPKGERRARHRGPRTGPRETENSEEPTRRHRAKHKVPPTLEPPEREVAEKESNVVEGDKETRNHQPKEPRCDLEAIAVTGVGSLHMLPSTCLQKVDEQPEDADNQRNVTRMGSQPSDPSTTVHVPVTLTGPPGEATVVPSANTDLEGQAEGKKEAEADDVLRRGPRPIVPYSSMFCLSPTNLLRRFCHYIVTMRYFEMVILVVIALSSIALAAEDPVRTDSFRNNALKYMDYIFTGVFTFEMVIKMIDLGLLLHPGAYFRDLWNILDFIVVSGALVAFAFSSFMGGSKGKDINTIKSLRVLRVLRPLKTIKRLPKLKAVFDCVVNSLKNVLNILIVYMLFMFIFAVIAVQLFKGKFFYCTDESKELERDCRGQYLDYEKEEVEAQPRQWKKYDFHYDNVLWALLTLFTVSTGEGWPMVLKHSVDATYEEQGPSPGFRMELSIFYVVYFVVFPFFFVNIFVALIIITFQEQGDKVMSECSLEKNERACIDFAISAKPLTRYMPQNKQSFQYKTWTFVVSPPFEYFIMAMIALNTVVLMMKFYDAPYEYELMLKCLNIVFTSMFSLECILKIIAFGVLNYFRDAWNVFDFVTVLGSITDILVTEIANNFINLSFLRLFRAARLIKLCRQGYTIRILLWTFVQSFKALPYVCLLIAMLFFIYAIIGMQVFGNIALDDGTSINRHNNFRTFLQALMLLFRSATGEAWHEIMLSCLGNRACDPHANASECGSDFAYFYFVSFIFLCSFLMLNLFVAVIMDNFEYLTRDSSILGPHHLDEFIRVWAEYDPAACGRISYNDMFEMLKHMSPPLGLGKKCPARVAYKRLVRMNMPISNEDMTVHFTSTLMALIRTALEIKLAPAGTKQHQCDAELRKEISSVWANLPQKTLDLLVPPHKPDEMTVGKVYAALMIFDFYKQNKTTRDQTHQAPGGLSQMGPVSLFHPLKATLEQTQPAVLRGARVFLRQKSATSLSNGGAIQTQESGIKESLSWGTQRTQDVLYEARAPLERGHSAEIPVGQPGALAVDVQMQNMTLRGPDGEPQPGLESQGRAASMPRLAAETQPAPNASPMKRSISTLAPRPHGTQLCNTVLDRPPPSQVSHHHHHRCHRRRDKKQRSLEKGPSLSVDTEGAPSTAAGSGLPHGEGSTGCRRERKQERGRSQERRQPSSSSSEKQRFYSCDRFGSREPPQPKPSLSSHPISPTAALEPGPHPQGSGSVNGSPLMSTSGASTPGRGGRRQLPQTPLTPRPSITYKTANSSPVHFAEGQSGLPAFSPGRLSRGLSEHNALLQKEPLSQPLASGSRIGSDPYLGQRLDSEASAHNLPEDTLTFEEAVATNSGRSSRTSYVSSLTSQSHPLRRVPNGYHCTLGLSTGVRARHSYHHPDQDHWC
The target of test [6] is Neurotensin receptor type 1 (Homo sapiens, UniProt P30989).
Sequence of Neurotensin receptor type 1 (P30989 whole entry): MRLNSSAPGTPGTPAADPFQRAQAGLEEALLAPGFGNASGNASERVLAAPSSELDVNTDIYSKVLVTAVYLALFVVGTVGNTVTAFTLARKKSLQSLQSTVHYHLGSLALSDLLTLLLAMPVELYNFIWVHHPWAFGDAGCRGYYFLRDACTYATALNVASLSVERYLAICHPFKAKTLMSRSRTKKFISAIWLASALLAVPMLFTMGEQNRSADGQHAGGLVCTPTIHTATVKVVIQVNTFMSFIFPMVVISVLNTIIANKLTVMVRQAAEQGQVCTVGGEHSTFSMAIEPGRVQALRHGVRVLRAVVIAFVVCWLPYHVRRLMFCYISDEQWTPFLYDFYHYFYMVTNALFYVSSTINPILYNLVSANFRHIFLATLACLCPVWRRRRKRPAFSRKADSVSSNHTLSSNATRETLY
Test [7] concerns the target 5-hydroxytryptamine receptor 2A (Homo sapiens, UniProt P28223). Type of test: functional, cell-based.
Test [8] has as its target Gamma-aminobutyric acid receptor subunit alpha-1/alpha-2/beta-2/gamma-2 (Homo sapiens, UniProt P14867+P18507+P47869+P47870). Type of test: functional, cell-based.
The target in test [9] is Beta-2 adrenergic receptor (Homo sapiens, UniProt P07550). Type of test: functional, cell-based.
Sequence of Beta-2 adrenergic receptor (P07550 whole entry): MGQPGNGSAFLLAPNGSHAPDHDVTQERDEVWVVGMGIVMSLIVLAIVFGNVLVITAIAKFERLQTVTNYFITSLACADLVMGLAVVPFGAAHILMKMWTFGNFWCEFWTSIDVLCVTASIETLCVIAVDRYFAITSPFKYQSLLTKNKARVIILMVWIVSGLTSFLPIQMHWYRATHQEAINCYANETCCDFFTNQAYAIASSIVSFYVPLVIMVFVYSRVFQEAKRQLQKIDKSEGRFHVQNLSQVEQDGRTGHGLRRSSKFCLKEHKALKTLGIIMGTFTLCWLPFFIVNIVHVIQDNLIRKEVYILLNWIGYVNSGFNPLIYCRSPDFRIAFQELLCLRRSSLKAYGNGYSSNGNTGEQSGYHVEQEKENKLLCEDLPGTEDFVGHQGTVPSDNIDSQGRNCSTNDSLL
Note: assay procedure not described here.

Sequence of Gamma-aminobutyric acid receptor subunit alpha-1/alpha-2/beta-2/gamma-2 (P14867 whole entry): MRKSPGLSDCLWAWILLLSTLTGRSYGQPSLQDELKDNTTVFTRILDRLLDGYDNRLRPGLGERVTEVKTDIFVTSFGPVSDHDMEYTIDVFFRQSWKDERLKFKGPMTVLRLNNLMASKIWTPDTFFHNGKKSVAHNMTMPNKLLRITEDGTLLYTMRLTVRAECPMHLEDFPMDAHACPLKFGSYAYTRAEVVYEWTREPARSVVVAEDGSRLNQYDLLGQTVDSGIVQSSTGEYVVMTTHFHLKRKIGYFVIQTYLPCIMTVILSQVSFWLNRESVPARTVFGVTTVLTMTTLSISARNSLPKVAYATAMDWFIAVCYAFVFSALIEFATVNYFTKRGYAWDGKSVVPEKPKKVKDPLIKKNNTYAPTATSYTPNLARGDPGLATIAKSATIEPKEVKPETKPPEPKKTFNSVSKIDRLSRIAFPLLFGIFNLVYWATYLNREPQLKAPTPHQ
Sequence of Gamma-aminobutyric acid receptor subunit alpha-1/alpha-2/beta-2/gamma-2 (P47870 whole entry): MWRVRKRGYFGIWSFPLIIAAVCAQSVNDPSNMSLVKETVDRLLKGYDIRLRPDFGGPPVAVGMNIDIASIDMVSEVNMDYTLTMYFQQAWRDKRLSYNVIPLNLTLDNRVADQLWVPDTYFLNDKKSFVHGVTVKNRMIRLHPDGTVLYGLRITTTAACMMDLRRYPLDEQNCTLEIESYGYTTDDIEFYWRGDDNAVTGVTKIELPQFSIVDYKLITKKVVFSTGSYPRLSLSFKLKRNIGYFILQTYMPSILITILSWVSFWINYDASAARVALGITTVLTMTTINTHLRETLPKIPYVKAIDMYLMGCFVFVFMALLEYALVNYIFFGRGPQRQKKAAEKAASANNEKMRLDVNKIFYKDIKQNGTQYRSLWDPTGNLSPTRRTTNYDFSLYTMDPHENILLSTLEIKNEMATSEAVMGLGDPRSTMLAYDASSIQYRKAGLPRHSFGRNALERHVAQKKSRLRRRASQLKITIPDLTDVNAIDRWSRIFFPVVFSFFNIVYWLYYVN
Sequence of Gamma-aminobutyric acid receptor subunit alpha-1/alpha-2/beta-2/gamma-2 (P18507 whole entry): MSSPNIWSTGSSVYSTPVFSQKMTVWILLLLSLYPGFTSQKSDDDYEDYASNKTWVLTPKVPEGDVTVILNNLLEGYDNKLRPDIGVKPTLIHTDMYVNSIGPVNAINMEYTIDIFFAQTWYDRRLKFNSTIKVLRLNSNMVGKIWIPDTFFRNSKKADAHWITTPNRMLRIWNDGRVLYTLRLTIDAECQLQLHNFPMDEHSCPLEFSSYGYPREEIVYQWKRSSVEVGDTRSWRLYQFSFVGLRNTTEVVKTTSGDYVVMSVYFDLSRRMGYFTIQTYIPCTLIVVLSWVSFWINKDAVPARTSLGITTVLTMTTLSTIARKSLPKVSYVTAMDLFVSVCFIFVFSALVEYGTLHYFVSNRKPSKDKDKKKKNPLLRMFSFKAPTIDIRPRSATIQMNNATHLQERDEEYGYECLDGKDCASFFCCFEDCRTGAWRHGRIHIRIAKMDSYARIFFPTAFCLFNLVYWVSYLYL
Sequence of Gamma-aminobutyric acid receptor subunit alpha-1/alpha-2/beta-2/gamma-2 (P47869 whole entry): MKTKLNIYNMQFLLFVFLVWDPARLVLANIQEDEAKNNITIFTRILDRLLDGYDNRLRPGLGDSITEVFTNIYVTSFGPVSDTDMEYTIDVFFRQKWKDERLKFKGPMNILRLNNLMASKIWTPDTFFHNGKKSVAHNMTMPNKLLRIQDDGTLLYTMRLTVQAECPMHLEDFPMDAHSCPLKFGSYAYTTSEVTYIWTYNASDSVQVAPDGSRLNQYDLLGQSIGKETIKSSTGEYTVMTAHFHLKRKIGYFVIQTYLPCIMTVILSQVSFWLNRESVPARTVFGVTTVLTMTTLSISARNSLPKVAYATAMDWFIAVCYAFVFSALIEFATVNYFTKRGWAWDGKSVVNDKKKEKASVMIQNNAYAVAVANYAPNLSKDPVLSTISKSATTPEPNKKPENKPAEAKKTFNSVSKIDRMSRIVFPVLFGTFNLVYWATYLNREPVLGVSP

Usually AC50 stands for the concentration at which the activity in the assay is half-maximal. As to `O=C(/C=C/c1cccc(S(=O)(=O)Nc2ccccc2)c1)NO` [BELINOSTAT], the AC50 in [1] was above 10 µM; in [2] it was above 30 µM; in [3], above 10 µM; in [4], above 10 µM; in [5], above 10 µM; in test [6], above 10 µM.
Take `O=C(CCC/C=C\C[C@@H]1[C@@H](CC[C@@H](O)CCc2ccccc2)[C@H](O)C[C@@H]1O)OCCCCO[N+](=O)[O-]` [LATANOPROSTENE BUNOD]: in test [2], the AC50 was above 30 µM.
Take `CC(=O)O[C@]1(C(C)=O)CC[C@H]2[C@@H]3C=C(Cl)C4=CC(=O)[C@@H]5C[C@@H]5[C@]4(C)[C@H]3CC[C@@]21C` [CYPROTERONE ACETATE]: the results for the AC50 in test [2] and in test [5] were above 30 µM and above 10 µM, respectively.
The compound `COC(=O)C[C@](O)(CCCC(C)(C)O)C(=O)O[C@@H]1C(OC)=C[C@]23CCCN2CCc2cc4c(cc2[C@H]13)OCO4` [OMACETAXINE MEPESUCCINATE] showed an AC50 in test [2] above 30 µM.
For `CC(C)(C)NC(=O)N[C@H](C(=O)N1C[C@H]2[C@@H]([C@H]1C(=O)NC(CC1CCC1)C(=O)C(N)=O)C2(C)C)C(C)(C)C` (stereo partly drawn) [BOCEPREVIR], the AC50 in test [2] is above 30 µM.
`COc1ccc2c(C(=S)N(C)CC(=O)O)cccc2c1C(F)(F)F` [TOLRESTAT] returned an AC50 in test [2] above 30 µM.
For `O=S1(=O)CCN(CN2CCS(=O)(=O)NC2)CN1` [TAUROLIDINE], the AC50 in [1], in test [2], in test [7], in [8] and in [9] was above 30 µM in each case.
On to `C[C@@H]1C[C@H]2[C@@H]3C[C@H](F)C4=CC(=O)C=C[C@]4(C)[C@@]3(F)[C@@H](O)C[C@]2(C)[C@@]1(OC(=O)c1ccco1)C(=O)SCF` [FLUTICASONE FUROATE], for which the AC50 in [1] was above 10 µM; in test [2] it was above 30 µM; in [3], above 10 µM; in test [4] it was above 10 µM; in [5], above 10 µM.
In test [2], `COc1cc(C)c2c(Oc3cccc(C(F)(F)F)c3)c(OC)cc(NC(C)CCCN)c2n1` (stereo not drawn) [TAFENOQUINE] had a concentration at half-maximal activity (AC50) above 30 µM.
For the compound `CN(C)CCCN1c2ccccc2CCc2ccccc21` [IMIPRAMINE], the AC50 in test [3] is above 30 µM; in [4] it was 0.239 µM; in [5] it was above 10 µM; in test [6], above 30 µM; in [9] it was above 30 µM.
Take `CN[C@@H](C)[C@@H](O)c1ccccc1` [PSEUDOEPHEDRINE]: the concentration at half-maximal activity (AC50) in [1] is above 10 µM; in [3], above 30 µM; in [4], above 10 µM; in test [5], above 10 µM; in [6], above 30 µM.
With `NC[C@H]1CC[C@H](C(=O)Oc2ccc(CCC(=O)O)cc2)CC1` [CETRAXATE], the AC50 in test [2], in test [8] and in test [9] was above 30 µM each time.
In test [2], `CC1(C)S[C@@H]2[C@H](/N=C/N3CCCCCC3)C(=O)N2[C@H]1C(=O)O` [AMDINOCILLIN] registered an AC50 above 30 µM.
Regarding `O=C(O)COCCN1CCN(C(c2ccccc2)c2ccc(Cl)cc2)CC1` (stereo not drawn) [CETIRIZINE], the AC50 was above 30 µM in [3]; above 10 µM in test [4]; above 10 µM in test [5]; above 30 µM in test [6]; above 30 µM in [9].
Take `CC(O)(CS(=O)(=O)c1ccc(F)cc1)C(=O)Nc1ccc(C#N)c(C(F)(F)F)c1` (stereo not drawn) [BICALUTAMIDE]: the half-maximal activity concentration (AC50) in [2] is above 30 µM; in test [3], above 30 µM; in test [4] it was above 10 µM; in [5], above 10 µM; in test [6], above 30 µM; in [9], above 30 µM.

Source of the values: ChEMBL document CHEMBL5291721, “A preclinical secondary pharmacology resource illuminates target-adverse drug reaction associations of marketed drugs” (Nat Commun, 2023).
